Results reported in the NIST ThermoML archive (doi:10.1016/j.jct.2011.08.017).
Where “and” joins values, the source holds several entries; their conditions need not be identical. Equal entries are not always repeated. Numbers after ± are expanded uncertainties.

Legend:
[1] = for Normal melting temperature: DTA
[2] = Molar enthalpy of transition or fusion; conditions: Crystal; DSC

c1c[nH]cn1 [1H-imidazole]
[1]
Conditions	vapor or sublimation pressure [kPa]
303.99 K, Crystal, Closed cell (Static) method	0.00058 ± 0.0001
306.97 K, Crystal, Closed cell (Static) method	0.00079 ± 0.00011
309.99 K, Crystal, Closed cell (Static) method	0.00108 ± 0.00011
312.98 K, Crystal, Closed cell (Static) method	0.00145 ± 0.00012
315.94 K, Crystal, Closed cell (Static) method	0.00195 ± 0.00013
318.92 K, Crystal, Closed cell (Static) method	0.00263 ± 0.00015
321.97 K, Crystal, Closed cell (Static) method	0.0035 ± 0.00018
324.96 K, Crystal, Closed cell (Static) method	0.00469 ± 0.00022
327.95 K, Crystal, Closed cell (Static) method	0.00621 ± 0.00027
330.92 K, Crystal, Closed cell (Static) method	0.00819 ± 0.00034
333.9 K, Crystal, Closed cell (Static) method	0.01063 ± 0.00043
333.9 K, Metastable liquid, Closed cell (Static) method	0.01485 ± 0.00054
336.88 K, Crystal, Closed cell (Static) method	0.01377 ± 0.00053
336.89 K, Metastable liquid, Closed cell (Static) method	0.01859 ± 0.0006
339.86 K, Crystal, Closed cell (Static) method	0.01782 ± 0.00059
339.86 K, Metastable liquid, Closed cell (Static) method	0.02311 ± 0.00067
342.84 K, Crystal, Closed cell (Static) method	0.02289 ± 0.00067
342.84 K, Metastable liquid, Closed cell (Static) method	0.02848 ± 0.00075
345.81 K, Metastable liquid, Closed cell (Static) method	0.03509 ± 0.00085
345.83 K, Crystal, Closed cell (Static) method	0.02923 ± 0.00077
348.8 K, Crystal, Closed cell (Static) method	0.03701 ± 0.00089
348.8 K, Metastable liquid, Closed cell (Static) method	0.04297 ± 0.00098
351.75 K, Metastable liquid, Closed cell (Static) method	0.05222 ± 0.0011
351.77 K, Crystal, Closed cell (Static) method	0.04693 ± 0.001
354.75 K, Crystal, Closed cell (Static) method	0.0592 ± 0.0012
354.76 K, Metastable liquid, Closed cell (Static) method	0.06354 ± 0.0013
357.72 K, Crystal, Closed cell (Static) method	0.07394 ± 0.0015
357.72 K, Metastable liquid, Closed cell (Static) method	0.07682 ± 0.0015
360.69 K, Metastable liquid, Closed cell (Static) method	0.09288 ± 0.0018
363.67 K, Closed cell (Static) method, Liquid	0.1112 ± 0.002
366.66 K, Closed cell (Static) method, Liquid	0.1336 ± 0.0021
369.63 K, Closed cell (Static) method, Liquid	0.1596 ± 0.0023
372.6 K, Closed cell (Static) method, Liquid	0.1912 ± 0.0025
375.56 K, Closed cell (Static) method, Liquid	0.2249 ± 0.0028
378.51 K, Closed cell (Static) method, Liquid	0.2655 ± 0.0031
381.51 K, Closed cell (Static) method, Liquid	0.3134 ± 0.0035
384.48 K, Closed cell (Static) method, Liquid	0.3688 ± 0.004

Conditions	Normal melting temperature [°C]
[1], Crystal	86.2 ± 0.4

Conditions	Molar enthalpy of transition or fusion [kcal/mol]
[2]	3.13 ± 0.0956

Cn1cnc(Cl)c1Cl [4,5-dichloro-1-methyl-1H-imidazole]
[1]
Conditions	vapor or sublimation pressure [kPa]
288.03 K, Crystal, Closed cell (Static) method	0.00048 ± 0.0001
290.06 K, Crystal, Closed cell (Static) method	0.0006 ± 0.0001
292.08 K, Crystal, Closed cell (Static) method	0.00076 ± 0.0001
294.06 K, Crystal, Closed cell (Static) method	0.00096 ± 0.00011
296.06 K, Crystal, Closed cell (Static) method	0.0012 ± 0.00011
298.04 K, Crystal, Closed cell (Static) method	0.00149 ± 0.00012
300.05 K, Crystal, Closed cell (Static) method	0.00185 ± 0.00013
302.01 K, Crystal, Closed cell (Static) method	0.00231 ± 0.00014
303.99 K, Crystal, Closed cell (Static) method	0.00286 ± 0.00015
306.02 K, Crystal, Closed cell (Static) method	0.00352 ± 0.00017
307.96 K, Crystal, Closed cell (Static) method	0.0043 ± 0.0002
309.97 K, Crystal, Closed cell (Static) method	0.00527 ± 0.00023
311.98 K, Crystal, Closed cell (Static) method	0.00646 ± 0.00027
313.95 K, Crystal, Closed cell (Static) method	0.00782 ± 0.00032
315.93 K, Crystal, Closed cell (Static) method	0.00957 ± 0.00039
317.91 K, Crystal, Closed cell (Static) method	0.01164 ± 0.00047
319.99 K, Crystal, Closed cell (Static) method	0.01413 ± 0.00053
322 K, Crystal, Closed cell (Static) method	0.01693 ± 0.00058
323.97 K, Crystal, Closed cell (Static) method	0.02049 ± 0.00063
325.97 K, Crystal, Closed cell (Static) method	0.02463 ± 0.00069
329.93 K, Metastable liquid, Closed cell (Static) method	0.03434 ± 0.00084
331.93 K, Closed cell (Static) method, Liquid	0.03936 ± 0.00092
333.9 K, Closed cell (Static) method, Liquid	0.04506 ± 0.001
335.89 K, Closed cell (Static) method, Liquid	0.05151 ± 0.0011
337.88 K, Closed cell (Static) method, Liquid	0.05882 ± 0.0012
339.87 K, Closed cell (Static) method, Liquid	0.06701 ± 0.0014
341.86 K, Closed cell (Static) method, Liquid	0.07636 ± 0.0015
343.84 K, Closed cell (Static) method, Liquid	0.08631 ± 0.0016
345.82 K, Closed cell (Static) method, Liquid	0.09809 ± 0.0018
347.8 K, Closed cell (Static) method, Liquid	0.1106 ± 0.002
349.78 K, Closed cell (Static) method, Liquid	0.1248 ± 0.0022

Conditions	Normal melting temperature [°C]
[1], Crystal	57.0 ± 0.3

Conditions	Molar enthalpy of transition or fusion [kcal/mol]
[2]	4.06 ± 0.0956

Clc1nc[nH]c1Cl [4,5-dichloroimidazole]
[1], Crystal, Closed cell (Static) method
Conditions	vapor or sublimation pressure
337.91 K	0.00048 ± 0.00011 kPa
339.87 K	0.00059 ± 0.00012 kPa
341.87 K	0.00072 ± 0.00012 kPa
341.88 K	0.00071 ± 0.00012 kPa
343.83 K	0.00086 ± 0.00012 kPa
345.84 K	0.00104 ± 0.00012 kPa
345.85 K	0.00104 ± 0.00012 kPa
347.81 K	0.00125 ± 0.00013 kPa
349.81 K	0.00148 ± 0.00013 kPa and 0.00151 ± 0.00013 kPa
351.78 K	0.0018 ± 0.00014 kPa
355.75 K	0.00258 ± 0.00016 kPa
357.73 K	0.00306 ± 0.00017 kPa
359.72 K	0.00366 ± 0.00019 kPa
361.71 K	0.00434 ± 0.00021 kPa
363.69 K	0.00513 ± 0.00024 kPa
365.67 K	0.00607 ± 0.00027 kPa
367.66 K	0.00722 ± 0.00031 kPa
369.64 K	0.00841 ± 0.00035 kPa
371.62 K	0.00998 ± 0.00041 kPa
373.6 K	0.01172 ± 0.00047 kPa
375.6 K	0.01368 ± 0.00053 kPa
377.56 K	0.01597 ± 0.00056 kPa
379.54 K	0.0184 ± 0.0006 kPa
381.52 K	0.02175 ± 0.00065 kPa
383.45 K	0.02487 ± 0.0007 kPa
385.49 K	0.02923 ± 0.00077 kPa
387.38 K	0.03334 ± 0.00083 kPa
389.45 K	0.03896 ± 0.00092 kPa
391.33 K	0.04433 ± 0.001 kPa
393.4 K	0.05168 ± 0.0011 kPa
395.37 K	0.0589 ± 0.0012 kPa

Conditions	Normal melting temperature [°C]
[1], Crystal	183.6 ± 0.6

Conditions	Molar enthalpy of transition or fusion [kcal/mol]
[2]	4.21 ± 0.143

N#Cc1nc[nH]c1C#N [4,5-dicyanoimidazole]
[1], Crystal, Calculated from knudsen effusion weight loss
Conditions	vapor or sublimation pressure
383.16 K	0.000153 ± 2.1e-05 kPa and 0.00015 ± 2.1e-05 kPa
385.16 K	0.000182 ± 2.1e-05 kPa and 0.000184 ± 2.1e-05 kPa and 0.000183 ± 2.1e-05 kPa
387.12 K	0.000223 ± 2.2e-05 kPa and 0.000222 ± 2.1e-05 kPa
389.16 K	0.000267 ± 2.2e-05 kPa and 0.000264 ± 2.2e-05 kPa
391.16 K	0.000325 ± 2.3e-05 kPa
393.12 K	0.000386 ± 2.4e-05 kPa and 0.000383 ± 2.4e-05 kPa and 0.000389 ± 2.4e-05 kPa
395.16 K	0.000462 ± 2.6e-05 kPa and 0.000464 ± 2.6e-05 kPa
397.16 K	0.000556 ± 2.8e-05 kPa
399.14 K	0.000668 ± 3.1e-05 kPa and 0.000664 ± 3.1e-05 kPa and 0.000666 ± 3.1e-05 kPa
401.16 K	0.000791 ± 3.4e-05 kPa and 0.000782 ± 3.4e-05 kPa and 0.000796 ± 3.5e-05 kPa
403.15 K	0.000954 ± 3.9e-05 kPa and 0.000931 ± 3.9e-05 kPa and 0.000932 ± 3.9e-05 kPa

Conditions	Normal melting temperature [°C]
[1], Crystal	176 ± 0.5

Conditions	Molar enthalpy of transition or fusion [kcal/mol]
[2]	5.4 ± 0.215
